# Where “and” joins values, the source holds several entries; their conditions need not be identical. Equal values may be shown once.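 Growth conditions: 96-well plates. Treatment: test compound, 48 hours, 5 concentrations. Analysis: linear interpolation between bracketing concentrations; unreached endpoints set to highest concentration. At the GI50, growth is halved. TGI is the concentration that stops growth completely.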
# Legend:
# Test in all cases: NCI tumour cell line growth inhibition, 48 h
# [1] = tested on: UACC-62 melanoma
# [2] = tested on: U251 CNS
# [3] = tested on: OVCAR-4 ovarian
# [4] = tested on: K-562 leukemia
# [5] = tested on: IGROV1 ovarian
# [6] = tested on: SK-MEL-28 melanoma
# [7] = tested on: MOLT-4 leukemia
# [8] = tested on: HOP-62 NSCLC
# [9] = tested on: PC-3 prostate
# [10] = tested on: HCT-15 colon
Structure (SMILES),TGI [1] [µM],TGI [2] [µM],TGI [3] [µM],TGI [4] [µM],TGI [5] [µM],TGI [6] [µM],TGI [7],TGI [8] [µM],GI50 [1] [µM],GI50 [2] [µM],GI50 [3] [µM],GI50 [5] [µM],GI50 [6] [µM],GI50 [7] [µM],GI50 [9] [µM],TGI [9] [µM],GI50 [10] [µM],TGI [10] [µM],GI50 [8] [µM],GI50 [4] [µM]
O=C1CN=C(c2ccccc2)c2ccncc2N1,> 100,> 100,> 100,> 100,> 100,> 100,> 100 µM,> 100,,,,,,,,,,,,
N#CSc1c[nH]c2ccc(/C=C/C(=O)/C=C(O)/C=C/c3ccc4[nH]cc(SC#N)c4c3)cc12,7.11,9.09,18.6,,8.41,5.76,5.44 µM,19.8,2.11,1.17,1.42,1.19,2,1.61,0.343,2.03,0.416,2.11,3.82,
Clc1ccc2c(NC3CCC(NC4CCCCC4)CC3)ccnc2c1 (stereo unspecified),12.5,13.3,41,,30.8,3.3,,,3.26,3.6,6.48,6.64,1.79,,11.2,43.2,3.52,12.8,,
CN(N=O)C(=O)NC(CCCCNC(=O)OCc1ccccc1)C(=O)OCc1ccccc1 (stereo unspecified),33.1,> 100,> 100,> 100,> 100,56.1,64.9 µM,79.6,,,,,,,,,,> 100,,
CCOP(=O)(OCC)C(C(=O)OC)C(=O)C(=O)Nc1cccc([N+](=O)[O-])c1 (stereo unspecified),> 100,> 100,> 100,> 100,> 100,> 100,> 100 µM,> 100,,,,,,,,,,> 100,,
CC(C)(Sc1cc(C(C)(C)C)c(O)c(C(C)(C)C)c1)Sc1cc(C(C)(C)C)c(O)c(C(C)(C)C)c1,> 100,> 100,> 100,3.35,> 100,> 100,,> 100,,,,,,,,> 100,,> 100,,
c1ccc2[nH]c(-c3ccc(Nc4nc(N5CCCC5)nc5[nH]ncc45)cc3)nc2c1,,0.39,2.81,0.466,,0.338,,3.07,,0.185,1.06,,0.181,,1.61,4.71,0.255,0.763,1.46,0.202
COc1ccc(C(O)C(c2ccc(OCc3ccccc3)cc2)c2ccc(OCc3ccccc3)cc2)cc1 (stereo unspecified),> 100,> 100,> 100,> 100,> 100,> 100,,> 100,,,,,,,,,,> 100,,
O=S(=O)(c1ccccc1)N1CCC1c1ccccc1 (stereo unspecified),> 100,> 100,> 100,> 100,> 100,> 100,> 100 µM,> 100,,,,,,,,,,> 100,,
Cc1cc(C)c2c(c1)CSCc1cc(C)cc(C)c1-2,> 100,40.5,> 100,> 100,> 100,> 100,41.4 µM,69.8,,,,,,,,,,> 100,,
O=[N+]([O-])c1ccc(Cl)c(C2CC(c3cccc4ccccc34)=Nc3ccccc3S2=O)c1 (stereo unspecified),40.8,20.2,> 84.2,37,> 85.1,42.8,62.8 µM,> 62.6,,,,,,,,,,> 100,,
CCOc1ccc2c(c1)[n+]([O-])c(C(N)=O)c(N)[n+]2[O-],,> 100,> 100,> 100,> 100,> 100,> 100 µM,> 100,,,,,,,,,,,,
[Cu].c1ccc2c(c1)C1=NC2=NC2=NC(=NC3=NC(=NC4=NC(=N1)c1ccccc14)c1ccccc13)c1ccccc12,> 100,> 100,> 100,> 100,> 100,> 100,,> 100,> 100,> 100,> 100,> 100,> 100,,> 100,> 100,> 100,> 100,> 100,> 100
O=C(O)c1ccccc1NS(=O)(=O)c1ccc(Cl)cc1,> 100,> 100,> 100,> 100,> 100,> 100,> 100 µM,> 100,,,,,,,,,,> 100,,
CC1COS(=O)N1c1ccccc1 (stereo unspecified),> 100,> 100,> 100,> 100,> 100,> 100,> 100 µM,> 100,,,,,,,,,,> 100,,
Clc1ccc(NCNC2Nc3ccccc3N2)cc1Cl,> 100,> 100,,> 100,,> 100,> 100 µM,> 100,,,,,,,,> 100,,> 100,,
NCCNCCNCc1c2ccccc2c(CNCCNCCN)c2ccccc12,> 100,> 100,> 100,> 100,> 100,> 100,> 100 µM,> 100,,,,,,,,,,> 100,,
O=C(c1ccccc1)[C@H]1Nc2ccc(Cl)cc2[C@H]2c3ccccc3O[C@H]21,28.6,29.2,32.3,36.7,38.2,25.8,37.7 µM,32.5,,,,,,,,,,28.4,,
C=C1C(=O)O[C@@H]2C[C@@]3(C)CCC[C@H](C)C3=C[C@H]12 (tested in a mixture with another compound),6.94,9.93,6.45,,7.71,5.13,3.73 µM,7.74,,,,,,,,10,,4.39,,

Structure (SMILES),TGI [1] [µM],TGI [2] [µM],TGI [3] [µM],TGI [4] [µM],TGI [5] [µM],TGI [6] [µM],TGI [7],TGI [8] [µM],GI50 [1] [µM],GI50 [2] [µM],GI50 [3] [µM],GI50 [5] [µM],GI50 [6] [µM],GI50 [7] [µM],GI50 [9] [µM],TGI [9] [µM],GI50 [10] [µM],TGI [10] [µM],GI50 [8] [µM],GI50 [4] [µM]
CCOc1cc(/C=C/C(=O)CC(=O)/C=C/c2ccc(OC(=O)CNc3nc4ccc(OC)cc4s3)c(OCC)c2)ccc1OC(=O)CNc1nc2ccc(OC)cc2s1,20.3,14.5,68.5,> 100,,12.2,11.1 µM,> 100,7.6,3.93,13.6,,3.54,3.14,5.08,67.3,5.24,22.6,23,2.71
[O-]c1ccccc1C=NCCN=Cc1ccccc1[O-].[O]=[U+2]=[O],> 74.3,39.1,64.1,> 100,61.6,> 78.7,> 100 µM,> 67,37.4,19.3,19,26.1,> 50.9,53.7,,,36.8,> 100,> 43.3,> 79.5
CS(=O)(=O)N(CCC#N)c1ccc(/C=C2\N=C(c3ccccc3Cl)OC2=O)cc1,> 100,> 100,,> 100,> 100,> 100,> 100 µM,> 100,,,,,,,,,,> 100,,
O=c1[nH]c(=O)n(Cc2ccc(C34CC5CC(CC(C5)C3)C4)c(O)c2)cc1F,20.3,24.9,30.2,18.2,,21.8,32.4 µM,31.4,6.93,12.3,13.8,,4.62,12.4,,,10.2,22.3,14.6,3.49
CC[O-].CC[O-].[O-]c1ccccc1C=NC12CC3CC(CC(C3)C1)C2.[O-]c1ccccc1C=NC12CC3CC(CC(C3)C1)C2.[Ti+4],> 100,> 100,> 100,> 100,> 100,> 100,> 100 µM,> 100,19.6,> 100,> 100,> 100,> 100,> 100,,,,,> 100,31.4
Cc1cccc(-c2nc(=S)[nH][nH]2)c1,> 100,> 100,> 100,> 100,> 100,> 100,> 100 µM,> 100,,,,,,,,,,> 100,,
CCN(Cc1ccccc1)c1ccc(/C=C2\COc3ccccc3C2=O)cc1,> 1000,> 1000,> 1000,,> 1000,> 1000,> 1000 µM,> 1000,304,> 1000,761,> 1000,> 1000,105,343,> 1000,106,> 1000,> 1000,
O=C1c2ccccc2C(=O)N1C/C=N/NS(=O)(=O)c1cccc([N+](=O)[O-])c1,> 100,> 100,> 100,> 100,> 100,,> 100 µM,> 100,,,,,,,,,,> 100,,
O=C1/C(=C/c2cc(O)c(O)c(O)c2)Oc2cc(O)cc(OC3OC(CO)C(O)C(O)C3O)c21 (stereo unspecified),38.8,,6.49,34.9,> 100,> 100,43.4 µM,,,,,,,,,,,57.5,,
CC1=NC2(C(=O)O)C3(C(=O)O)N=C(C)OC3(C(F)(F)F)C2(C(F)(F)F)O1 (stereo unspecified),> 100,> 100,> 100,> 100,> 100,> 100,> 100 µM,> 100,,,,,,,,,,,,
[N-]=[N+]=NC1C(Cl)C(=O)NC(=O)N1[C@H]1C[C@H](O)[C@@H](CO)O1 (stereo partly specified),> 100,> 100,> 100,> 100,> 100,> 100,> 100 µM,> 100,,,,,,,,,,,,
CC(C)N1CCOC(c2ccc(O)c(O)c2)C1 (stereo unspecified),> 100,,> 100,> 100,> 100,> 100,> 100 µM,> 100,,,,,,,,,,> 100,,
CCCCCCCCCCCC(c1ccccc1)[N+](C)(C)C (stereo unspecified),,2.49,4.05,4.09,1.79,3.31,4.02 µM,3.07,,1.14,1.13,0.417,1.49,1.36,0.393,2.52,14.1,37,1.52,0.673
O=c1cc(-c2cccc(Cl)c2)[nH]c2cc3c(cc12)OCO3,0.556,10.3,> 100,,,,75 µM and > 100 µM,2.85,,,43,3.54,,0.654,,> 100,,2.81,,
CSC(=Nc1ccc([N+](=O)[O-])cc1C#N)NC(=O)c1ccccc1,> 100,> 100,> 100,> 100,> 100,> 100,> 100 µM,> 100,,,,,,,,,,> 100,,
O=C1C2C3SC(c4cc5ccccc5cc43)C2C(=O)N1c1ccccc1 (stereo unspecified),> 100,> 100,> 100,> 100,> 100,> 100,> 100 µM,,,,,,,,,,,> 100,,
Cc1ccc(/C=C/C(=O)c2ccc(F)cc2)s1,21.3,11.2,29.8,,5.25,7.31,> 100 µM,28,6.86,2.85,11.7,2.17,2.94,3.39,2.64,7.11,4.14,18.4,14.2,
O=S1(=O)[C@H](c2ccccc2)c2c(-c3ccccc3)sc(-c3ccccc3)c2[C@@H]1c1ccccc1,> 100,> 100,> 100,> 100,> 100,> 100,> 100 µM,> 100,,,,,,,,,,> 100,,
COc1cc(-c2csc(NC(=O)Nc3ccc(Cl)cc3)n2)cc(OC)c1OC,4.22,13.1,> 49.6,> 100,29.5,7.12,,7.76,1.93,3.35,2.89,3.18,2.44,,2.4,8.39,2.9,> 40.9,2.65,3.38
